Target: T1, IL-17A/A (Homo sapiens, UniProt Q16552)
T1 construct: purchased Genscript Z03228
T1 sequence (Q16552 24-155): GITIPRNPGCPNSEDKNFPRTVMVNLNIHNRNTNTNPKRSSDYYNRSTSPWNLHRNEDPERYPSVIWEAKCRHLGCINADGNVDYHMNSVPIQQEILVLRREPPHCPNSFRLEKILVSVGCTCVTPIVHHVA
Test: HEK-Blue IL-17A/A inhibition assay (SEAP reporter)
Type: cell-based
Conditions: HEK-Blue cells (HEK 293 expressing IL-17RA, IL-17RC, Act1); IL-17A/A stimulation; 20 hours; SEAP read at A630; 4-parameter fit
Summary of the method: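 HEK 293 cells engineered with IL-17RA, IL-17RC and Act1 (NFκB-driven SEAP) given titrated compound (top final 10, 1 or 0.3 uM; 0.1% DMSO) just before IL-17A/A, then incubated 20 h. SEAP in media developed with Quanti-Blue, read at A630; IC50 by 4-parameter nonlinear fit.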

Row | Structure (SMILES) | IC50
1 | Cc1cc(NC(=O)[C@@H](NC(=O)c2nonc2C)C(C2CC2)C2CC2)c(F)cc1C(C)C(=O)N(C)CC(F)(F)F (stereo partly shown) [Compound 211] | < 100 nM
2 | CCC(C1CCC1)[C@H](NC(=O)c1ccnn1CC)C(=O)Nc1ccc([C@H](C)C(=O)NCC(F)(F)F)cc1F (single isomer, unassigned) [Compound 87] | 100 to 1000 nM
3 | Cc1cc(NC(=O)[C@@H](NC(=O)c2nonc2C)C2CCC(F)(F)CC2)c(F)cc1C(C)C(=O)N(C)CC(F)(F)F (stereo partly shown) [Compound 198] | 100 to 1000 nM
4 | CC(C)c1nocc1C(=O)N[C@H](C(=O)Nc1cc(C(F)(F)F)c(C(C)C(=O)NCC(F)(F)F)cc1F)C(C1CC1)C1CC1 (stereo partly shown) [Compound 229] | > 1000 nM
5 | CC(C(=O)N(C)CC(F)(F)F)c1cc(F)c(NC(=O)[C@@H](NC(=O)c2ccnn2C(C)C)C(C2CC2)C2CC2)cc1OC(F)(F)F (stereo partly shown) [Compound 246] | > 1000 nM
6 | CCn1nccc1C(=O)N[C@H](C(=O)Nc1cc(OC(F)(F)F)c(C(C)C(=O)N(C)CC(F)(F)F)cc1F)C(C1CC1)C1CC1 (stereo partly shown) [Compound 245] | 100 to 1000 nM
7 | CCn1nccc1C(=O)N[C@H](C(=O)Nc1cc(OC(F)(F)F)c(C(C)C(=O)NCC(F)(F)F)cc1F)C(C1CC1)C1CC1 (stereo partly shown) [Compound 259] | < 100 nM
8 | CC(C(=O)NCC(F)(F)F)c1cc(F)c(NC(=O)[C@@H](NC(=O)c2ccnn2C(C)C)C(C2CC2)C2CC2)cc1C(F)(F)F (single isomer, unassigned) [Compound 120] | < 100 nM
9 | Cc1c(F)c(NC(=O)[C@@H](NC(=O)c2conc2C2CC2)C(C2CC2)C2CC2)cc(C(F)(F)F)c1C(C)C(=O)NCC(F)(F)F (stereo partly shown) [Compound 237] | > 1000 nM
10 | Cc1cc(NC(=O)[C@@H](NC(=O)c2nonc2C)C(C2CC2)C2CC2)c(F)cc1C(C)C(=O)NCC(F)(F)F (stereo partly shown) [Compound 210] | 100 to 1000 nM
11 | CC(C(=O)NCC(F)(F)F)c1cc(F)c(NC(=O)[C@@H](NC(=O)c2ccnn2C(C)C)C(C2CC2)C2CC2)cc1N(C)C (stereo partly shown) [Compound 234] | > 1000 nM
12 | CC(C)c1nonc1C(=O)N[C@H](C(=O)Nc1cc(C(F)(F)F)c(C(C)C(=O)NCC(F)(F)F)cc1F)C(C1CC1)C1CC1 (stereo partly shown) [Compound 238] | 100 to 1000 nM
13 | C[C@H](C(=O)N(C)CC(F)(F)F)c1ccc(NC(=O)[C@@H](Nc2nccn3nccc23)C(C2CC2)C2CC2)c(F)c1 [Compound 106, (S)-3,3-dicyclopropyl-N-(2-fluoro-4-((S)-1-(methyl(2,2,2-trifluoroethyl)amino)-1-oxopropan-2-yl)phenyl)-2-(pyrazolo[1,5-a]pyrazin-4-ylamino)propenamide] | > 1000 nM
14 | CCn1nccc1C(=O)N[C@H](C(=O)Nc1ccc([C@H](C)C(=O)N(C)CC(F)(F)F)cc1F)[C@H]1CC[C@H](C)CC1 [Compound 71, -ethyl-N-((S)-2-((2-fluoro-4-((S)-1-(methyl(2,2,2-trifluoroethyl)amino)-1-oxopropan-2-yl)phenyl)amino)-1-((1r,4S)-4-methylcyclohexyl)-2-oxoethyl)-1H-pyrazole-5-carboxamide] | < 100 nM
15 | CCn1nccc1C(=O)N[C@H](C(=O)Nc1cc(C(F)(F)F)c(C(C)C(=O)NC(CO)C(F)(F)F)cc1F)C(C1CC1)C1CC1 (single isomer, unassigned) [Compound 240] | < 100 nM

Results, then the molecule that gave them:

Row | IC50 | Structure (SMILES)
16 | > 1000 nM | COc1cc(NC(=O)[C@@H](NC(=O)c2ccnn2C(C)C)C(C2CC2)C2CC2)c(F)cc1C(C)C(=O)N1CC(O)CC1C(F)(F)F (single isomer, unassigned) [Compound 182]
17 | > 1000 nM | CC(C)n1nccc1C(=O)N[C@H](C(=O)Nc1ccc(C(CO)C(=O)NCC(F)(F)F)cc1F)C(C1CC1)C1CC1 (stereo partly shown) [Compound 193]
18 | < 100 nM | CCC(C(=O)N(C)CC(F)(F)F)c1ccc(NC(=O)[C@@H](NC(=O)c2ccnn2C(C)C)C(C2CC2)C2CC2)c(F)c1 (stereo partly shown) [Compound 192]
19 | 100 to 1000 nM | CC(C)n1nccc1C(=O)N[C@H](C(=O)Nc1ccc(C(CN2CCOCC2)C(=O)NCC(F)(F)F)cc1F)C(C1CC1)C1CC1 (single isomer, unassigned) [Compound 131]
20 | 100 to 1000 nM | CC(C(=O)NCC(F)(F)F)c1cc(F)c(NC(=O)[C@@H](NC(=O)c2ccnn2C(C)C)C(C2CC2)C2CC2)cc1Br (mixture of isomers) [Compound 113, N-((2S)-1-((5-bromo-2-fluoro-4-(1-oxo-1-((2,2,2-trifluoroethyl)amino)propan-2-yl)phenyl)amino)-3,3-dicyclopropyl-1-oxopropan-2-yl)-1-isopropyl-1H-pyrazole-5-carboxamide]
21 | < 100 nM | Cc1cc(NC(=O)[C@@H](NC(=O)c2ccnn2C(C)C)C(C2CC2)C2CC2)c(F)cc1C(C)C(=O)N1CC(O)CC1C(F)(F)F (single isomer, unassigned) [Compound 173]
22 | 100 to 1000 nM | CC(=O)NC(C(=O)NCC(F)(F)F)c1ccc(NC(=O)[C@@H](NC(=O)c2ccnn2C(C)C)C(C2CC2)C2CC2)c(F)c1 (single isomer, unassigned) [Compound 167]
23 | < 100 nM | CC(C)n1nccc1C(=O)N[C@H](C(=O)Nc1ccc([C@H](C)C(=O)N(C)CC(F)(F)F)cc1F)C(C1CC1)C1CC1 [Compound 78, N-((S)-1,1-dicyclopropyl-3-((2-fluoro-4-((S)-1-(methyl(2,2,2-trifluoroethyl)amino)-1-oxopropan-2-yl)phenyl)amino)-3-oxopropan-2-yl)-1-isopropyl-1H-pyrazole-5-carboxamide]
24 | > 1000 nM | CC(C)n1nccc1C(=O)N[C@H](C(=O)Nc1ccc([C@H](C)C(=O)N2C(C(N)=O)CCC2C(F)(F)F)cc1F)C(C1CC1)C1CC1 (single isomer, unassigned) [Compound 146]
25 | > 1000 nM | CC(C)n1nccc1C(=O)N[C@H](C(=O)Nc1ccc([C@H](C)C(=O)N2CC(F)(CO)C2)cc1F)C(C1CC1)C1CC1 [Compound 33, N-((S)-1,1-dicyclopropyl-3-((2-fluoro-4-((S)-1-(3-fluoro-3-(hydroxymethyl)azetidin-1-yl)-1-oxopropan-2-yl)phenyl)amino)-3-oxopropan-2-yl)-1-isopropyl-1H-pyrazole-5-carboxamide]
26 | 100 to 1000 nM | CC(CN1CCOCC1)n1nccc1C(=O)N[C@H](C(=O)Nc1ccc([C@H](C)C(=O)NCC(F)(F)F)cc1F)C(C1CC1)C1CC1 (single isomer, unassigned) [Compound 93]
27 | 100 to 1000 nM | CC(C(=O)NCC(F)(F)F)c1cc(F)c(NC(=O)[C@@H](NC(=O)c2ccnn2C(C)C)C(C2CC2)C2CC2)cc1Cl (single isomer, unassigned) [Compound 108]
28 | < 100 nM | CC(=O)Nc1cc(NC(=O)[C@@H](NC(=O)c2ccnn2C(C)C)C(C2CC2)C2CC2)c(F)cc1C(C)C(=O)NCC(F)(F)F (single isomer, unassigned) [Compound 159]
29 | 100 to 1000 nM | CC(C)n1nccc1C(=O)N[C@H](C(=O)Nc1ccc([C@H](C)C(=O)NCCF)cc1F)C(C1CC1)C1CC1 [Compound 34, N-((S)-1,1-dicyclopropyl-3-((2-fluoro-4-((S)-1-((2-fluoroethyl)amino)-1-oxopropan-2-yl)phenyl)amino)-3-oxopropan-2-yl)-1-isopropyl-1H-pyrazole-5-carboxamide]
30 | 100 to 1000 nM | CC(C)n1nccc1C(=O)N[C@H](C(=O)Nc1ccc([C@H](C)C(=O)N2CCC(F)(F)C2)cc1F)C(C1CC1)C1CC1 [Compound 30]
31 | < 100 nM | COCC(C(=O)NCC(F)(F)F)c1ccc(NC(=O)[C@@H](NC(=O)c2ccnn2C(C)C)C(C2CC2)C2CC2)c(F)c1 (single isomer, unassigned) [Compound 105]

Reference: patent US20240376056A1, “PHENYL ACETAMIDE BASED IL-17A MODULATORS AND USES THEREOF” (DiCE Alpha, Inc., priority 2021, published 2024)
